# From ChEMBL document CHEMBL3507680, “University of Dundee, Gates Library screen for HepG2 cell viability”
# Assay: Human HepG2 cell viability assay in 384 well format
# Type: toxicity, cell-based
# Design: dose 125 nL, time 70.5 hour; cytotoxicity at 70.5 h: concentration not given beside the values
# Conditions: HepG2 cells, read-out: Inhibition
row,Structure (SMILES),cytotoxicity at 70.5 h [%]
1,CC(C)Cn1cc(NC(=O)N2CCOC(c3ccccc3)C2)cn1 (configuration not stated),-4.35
2,CCC(CO)N(C/C(C)=C/c1ccco1)Cc1ccsc1 (configuration not stated),3.15
3,c1cnnc(N2CCC(c3nnc(Cn4ccnc4)n3C3CC3)CC2)c1,-4.27
4,CCc1nc(N)sc1C(=O)N1CCCC(COc2cccc(C)c2)C1 (configuration not stated),-0.442
5,Cc1ccc2c(c1)C(NC1CCN(C)CC1)CCCO2 (configuration not stated),15.4
6,c1cnc(N2C[C@H](OCC3CCOCC3)[C@H]3COC[C@H]32)nc1,-1.34
7,CN(CCO)CC1COCCN1C(=O)CCC1CCCC1 (configuration not stated),47.6
8,Cc1ccc(O)c(CNC2CCCN(Cc3noc(C4CC4)n3)C2)n1 (configuration not stated),-4.57
9,CC(C)Oc1cccc2c1c(NC(=O)CN(C)C)nn2CC(F)(F)F,-8.54
10,O=C1NCC[C@]12CN(Cc1nccs1)C[C@H]2c1ccccc1,-0.358
11,COc1ccc(OCC2CCCN(Cc3ccncc3)C2)cc1 (configuration not stated),-12.6
12,Cc1cc(C)n(CC2CN(Cc3ccc4c(c3)OCCO4)CCO2)n1 (configuration not stated),-3.91
13,c1cc2nccc(CC3CCCN(Cc4ncc[nH]4)CC3)c2cn1 (configuration not stated),-7.89
14,CN1[C@H](CN2CCCC2)C[C@@H]2CN(C(=O)Cc3ccsc3)CC[C@@H]21,-10.6
15,CN(C)CC1CN(Cc2csc(C3CCCC3)n2)CCO1 (configuration not stated),-12.3
16,Cc1cc(C)c(CNC(=O)CC2CCCO2)c(=O)[nH]1 (configuration not stated),-3.05
17,CCn1cc2c(n1)CN(Cc1ccncc1)CC2COCC1CC1 (configuration not stated),-17.6
18,Cc1n[nH]c(C2CN(C(=O)c3cc(C)sc3C)CCO2)n1 (configuration not stated),-6.3
19,Cn1nccc1C(=O)N1C[C@@H]2CN(S(C)(=O)=O)CCO[C@@H]2C1,-3.72
20,Cn1c(CCNC(=O)Nc2cn[nH]c2)nc2ccc(F)cc21,-1.73
21,c1cnc(N2CC[C@@H]3CN(Cc4ccncc4)CCO[C@@H]3C2)nc1,-2.03
22,CC(=O)N1CCCCC1c1nnc2n1CCNC2 (configuration not stated),17.5
23,O=c1[nH]c(CN2CCCC(Cn3cncn3)C2)nc2ccccc12 (configuration not stated),-4.42

row,Structure (SMILES),cytotoxicity at 70.5 h [%]
1,c1cncc(-n2cnnc2CCCN2CCOCC2)c1,1.35
2,Cc1n[nH]c2ncc(CNC3CCCN(c4ncccn4)C3)cc12 (configuration not stated),0.0496
3,Cc1cc(CN(C)CC2CC(C3CCCCC3)=NO2)no1 (configuration not stated),0.975
4,O=C1NC(c2ccccc2)=N[C@@]12CC[C@@H]1CN(Cc3ccccc3)C[C@@H]12,0.309
5,CNC(=O)Cc1noc(Cc2ccc3c(c2)CCCC3)n1,12.5
6,COc1ccc(S(=O)(=O)N2CCC(O)(CN(C)C)C2)cc1 (configuration not stated),-4.76
7,COc1ccccc1Oc1ncccc1CNC(=O)C(O)C(F)(F)F (configuration not stated),-5.77
8,Cc1nn(C)c(C)c1CNCc1ccc(N2CCOCC2)nc1,3.85
9,Cc1cc(NC2CCN(CC3CCCO3)CC2)n2nc(C)c(C)c2n1 (configuration not stated),4.66
10,CCCOc1ccc(C2SCC(=O)Nc3c2c(=O)[nH]n3C(C)C)cc1 (configuration not stated),-18.7
11,CC(C)Nc1cc(N2CCC(n3cc(C4CC4)nn3)CC2)ncn1,23.9
12,CN(C)c1cc(CNc2ccc(S(=O)(=O)C(C)(C)C)nc2)ccn1,8.83
13,COc1ncccc1NC(=O)C1CC(=O)N(Cc2ccccn2)C1 (configuration not stated),0.729
14,CN1[C@@H](c2ccccc2)[C@@H](C(=O)NCc2ccncc2)C[C@@]1(C)C(=O)O,-22.3
15,CN(Cc1ccc(C(N)=O)cc1)c1ccc(C(F)(F)F)cn1,-2.07
16,CN(C)CCN1CCC2(CC1)CN(Cc1cccnc1)C(=O)CO2,-4.21
17,CC(C)NC(=O)CN1CCN(CC2CCOc3ccccc3C2)CC1 (configuration not stated),-7.34
18,CSc1ccc(NC(=O)NCC(O)C(C)C)cc1F (configuration not stated),4.17
19,O=C(CCc1ccncc1)N1CCc2c(ncnc2N2CCOCC2)C1,31.1
20,Cc1nnc2n1CCN(Cc1ccc3c(c1)OCCO3)C2,-2.45
21,Cn1cnnc1C1CCCN(C(=O)c2n[nH]c3ccccc23)C1 (configuration not stated),4.38
22,CS(=O)(=O)NCCC1CCCCN1C(=O)NCc1ccccn1 (configuration not stated),-18.6
23,COc1ccc(CN2CCC(C(N)=O)C2)c(Br)c1OC (configuration not stated),0.0817

row,Structure (SMILES),cytotoxicity at 70.5 h [%]
1,N#Cc1ccc(CNCC2CCN(CCO)CC2)cc1,-5.67
2,CC(C)c1nc2c(n1C)CCN(Cc1nc(-c3ccco3)no1)C2,-7.27
3,Cc1cc(NC(=O)N2CCCC2CN2CCOCC2)nn1C (configuration not stated),-10.1
4,O=C1COC2(CCN(c3ncccn3)CC2)CN1c1ccsc1,-4.75
5,Cc1nc(CN2CCCC(NCCCOc3ccc(F)cc3)C2)no1 (configuration not stated),-8.43
6,COc1cccc(F)c1CN1CCC(c2nccc(C)n2)C1 (configuration not stated),-9.63
7,Cn1ccc(C2CCCCN2C(=O)c2cccc(-n3cccn3)c2)n1 (configuration not stated),10.7
8,COc1ccc2[nH]nc(CN3CCC(C(=O)N4CCCCC4)CC3)c2c1,-1.62
9,O=C(O)c1ccccc1-c1ccc(CN2CC(c3ccncn3)C2)o1,-5.44
10,COc1ccc(Cl)cc1C(=O)N1CCCC(c2cc(C)[nH]n2)C1 (configuration not stated),0.303
11,CC(=O)N[C@@H]1CN(Cc2ccco2)C[C@H]1c1ccc(C)o1,-6.07
12,CCOc1ccc(C(=O)NCc2ccnc(N3CCN(C)CC3)c2)cn1,-7.61
13,COC(=O)C1CN(CC(=O)Nc2ccccc2Cl)c2ccccc21 (configuration not stated),-5.02
14,Cc1cc(C(=O)N2CCN(Cn3cc(Cl)cn3)CC2)on1,-8.38
15,O=C(NCc1ccco1)C1CCCN1Cc1nc(-c2ccco2)no1 (configuration not stated),-15.9
16,CC(C)OC(=O)CNC(=O)Nc1ccc(-c2nc(C(C)C)no2)cc1,2.82
17,CCN1CCOCC2(CCCN(C(=O)c3cccc(O)c3)C2)C1 (configuration not stated),-6.13
18,CSc1nc(N)c2c(n1)N=C1COC(O)=C1C2c1cccc(Cl)c1 (configuration not stated),47.4
19,CCC(NC(=O)NCc1ccoc1C)c1c(C)nn(C)c1C (configuration not stated),-5.65
20,CCc1nccn1CCC(=O)N1CC(=O)N(c2ccccc2C)CC1C (configuration not stated),-7.9
21,CCCOCCN1CCC2(CC1)CC(=O)N(Cc1cc(F)cc(F)c1)C2,-3.73
22,CC[C@H]1CN2CC[C@H]1C[C@@H]2CNC(=O)Nc1cccc(C(F)(F)F)c1,-3.6
23,Fc1cnc(N2CCO[C@H]3CN(CC4CCCC4)C[C@H]32)nc1,-13

row,Structure (SMILES),cytotoxicity at 70.5 h [%]
1,Cc1csc(C2CCCN(C(=O)c3c[nH]c(C)n3)C2)n1 (configuration not stated),-1.13
2,Cc1ccc(-n2nnc(CC(=O)N3CCSCC3)c2C)cc1,-12.8
3,Cc1ccc(-c2ccnc(NCC3(N(C)C)CCOCC3)n2)c(C)n1,-4
4,CC(C)N(C)C(=O)C1CSCN1S(=O)(=O)c1cccs1 (configuration not stated),-8.56
5,Cc1cc(NC(=O)N2CCN(C)CC2C)n(CCC#N)n1 (configuration not stated),18.4
6,O=C(Cc1ccccn1)N1CCC2(CC1)CN(c1ncccn1)CCO2,-10.3
7,O=C(COc1ccc2c(c1)CCCC2=O)NCc1ccco1,-4.86
8,CC(=O)N1CCn2c(-c3cccc(F)c3)cnc2C12CCNCC2,-7.49
9,CC(C(=O)Nc1ccc(N2CCOCC2)nc1)n1cncn1 (configuration not stated),23.7
10,Cc1nc(CN2CCN(C)C(=O)C23CCN(CC2CCCC2)CC3)cs1,-9.21
11,CN1CCC(Cc2nc(-c3cnccn3)n(C3CCS(=O)(=O)C3)n2)CC1 (configuration not stated),0.375
12,Cc1noc(C)c1CN1C[C@H]2CNC[C@H]2C1,-2.52
13,Cc1nn(C)c(C)c1C1CCCN1Cc1noc(C2CC2)n1 (configuration not stated),7.14
14,COc1cccc(-c2n[nH]cc2CNC2CCN(C3CC3)CC2)c1,29.3
15,c1cnc(N2CCCC3(CCN(CC4CC4)C3)C2)nc1 (configuration not stated),-6.19
16,COCC1CN(CCOc2ccc(Cl)cc2)Cc2c1cnn2C (configuration not stated),-6.25
17,Cc1ccc(NC(=O)c2cc3c(=O)n(C)c(=O)n(C)c3nc2C)cc1Cl,1.87
18,CCC(=O)N1CCCN(Cn2nc(C)c(Br)c2C)CC1,-0.667
19,CNc1ncc2c(n1)CN(CCc1ccc(Cl)cc1)C2=O,-5.88
20,c1cc(-c2c[nH]c([C@@H]3COCCN3Cc3ncc[nH]3)n2)ccn1,1.76
21,CCc1cc(CNC(=O)N2CCN(c3nc(C)c(C)s3)CC2)on1,-3.25
22,CCC(Nc1cccc(Oc2ccc(C#N)cc2)c1)C(N)=O (configuration not stated),-4.69
23,O=S(=O)(N1CCOCC1)N1CCOC(CCc2ccccc2)C1 (configuration not stated),-4.48

row,Structure (SMILES),cytotoxicity at 70.5 h [%]
1,O=C(c1cccnc1O)N(Cc1ccsc1)CC1CCCO1 (configuration not stated),8.65
2,CCN(Cc1ccc(O)c(C(=O)O)c1)CC1CCOCC1,-0.0411
3,CC1(C)CNC(=O)c2nc(-c3ccccc3)[nH]c2C1,14.6
4,N#Cc1cccc(OCCN2CCOC(Cn3cccn3)C2)c1 (configuration not stated),-3.46
5,CC(C)CCn1cc(C(C(=O)O)N2CCC(c3ccncc3)CC2)cn1 (configuration not stated),19.8
6,CNS(=O)(=O)c1ccc(CN2CCCN(c3ccccc3)CC2)cc1,18
7,CC1CN(C(=O)NCCc2nc(C(C)C)no2)CCO1 (configuration not stated),10.3
8,CN1CCN(C[C@@H]2OC[C@H]3CN(CCc4ccccc4)CC[C@H]32)CC1,-0.223
9,CC(C)n1nc2c(cc1=O)CN(CC(=O)N(C)c1nccs1)CC2,6.02
10,Cc1nc(CN(C)C2CCN(CCc3ccccn3)C2)no1 (configuration not stated),24.5
11,CCn1cc(-c2cc(C(F)F)nc3sc(C(N)=O)c(N)c23)c(C)n1,-3.39
12,O=C(NC[C@]12COC[C@H]1CN(CC1CCOCC1)C2)c1ccccc1,1.78
13,Cc1ccc(C)c(OCC(=O)NC2CCN(c3ccccn3)CC2)c1,-11.1
14,O=C(Cc1ccc(-n2cccn2)cc1)N1CCCC(n2cccn2)C1 (configuration not stated),17.4
15,Clc1ccc(CNc2ccc(Cl)cn2)cc1,-9.29
16,c1ccc(Oc2ccc(OC34CCCN(CC3)C4)cc2)cc1 (configuration not stated),-9.13
17,CSc1ccc(C(=O)N2CC(=O)N(CC(C)(C)C)CC(O)C2)cc1 (configuration not stated),-0.234
18,CCOCc1nc2c(c(N(C)Cc3ccsc3)n1)CCNCC2,-3.56
19,O=C(NCC1(O)CCOCC1)c1ccn(-c2ccccc2F)n1,-9.56
20,Cn1cc(CN2C[C@@H]3OCCN(CC4CCCC4)[C@@H]3C2)cn1,-7.97
